{
  "source": "patent US20100143379A1",
  "about": "(priority 2005, published 2010)",
  "molecules": {"B1": {"name": "IFNγ: Recombinant mouse IFN-γ from R&D Systems (protein, UniProt P01580 23-155, looked up)", "Interferon gamma": "HGTVIESLESLNNYFNSSGIDVEEKSLFLDIWRNWQKDGDMKILQSQIISFYLRLFEVLKDNQAISNNISVIESHLITTFFSNSKAKKDAFMSIAKFEVNNPQVQRQAFNELIRVVHQLLPESSLRKRKRSRC"}},
  "type_in_all_cases": "cell-based",
  "key": {"CD44": {"test_system": "CD44", "experiment": "CD44 phospho-serine sandwich ELISA", "conditions": "H-89, 20 μM; RO-31-2880, 10 μM", "protocol": "(§1) FIGS. 12A-12E show the phosphoserine content of CD74 and CD44 measured by ELISA. […] The ELISA values represent the mean±SD of triplicate measurements. Experiments were replicated twice. *P<0.02 versus corresponding control (Student's T test, two-tailed). […] Cell lysates were prepared and probed for PKA and PKC using phospho-specific, and total anti-PKA and anti-PKC antibodies.\nSer325 is constitutively phosphorylated in resting cells, but undergoes de-phosphorylation in response to PKC activating stimuli such as phorbol esters. […] The effect of MIF-stimulation CD44 phosphorylation was analyzed in the COS-7 and MEF cell lines by sandwich ELISA using an anti-CD44 capture antibody to quantify CD44 phospho-serine residues (Perez et al. (2003). Nature Immunol. 4:1083-92). […]\nThe serine phosphorylation of CD74 and CD44 was quantified by specific sandwich ELISA (Perez et al. (2003). Nature Immunol 4:1083-92). […] After several washes (0.5% Tween-20 in PBS), 0.2 μg/ml anti-phospho-serine antibody (Hypromatrix) conjugated with horseradish peroxidase was added, and immunoreactivity measured by the TMB reagent (DakoCytomation) and the data analyzed with SpectraMax Plus (Molecular Devices). […]"}, "CD74": {"test_system": "CD74", "experiment": "CD74 phospho-serine sandwich ELISA", "conditions": "H-89 20 μM; RO-31-2880 10 μM; COS-7/CD74+CD44", "protocol": "as §1\nThe observation that the phosphoserine content of CD74 increased only in cells that expressed CD74 and full-length CD44 is consistent with the notion that the MIF-mediated phosphorylation of CD74 is dependent on the activity of the CD44 intracytoplasmic domain.\nThe serine phosphorylation of CD74 and CD44 was quantified by specific sandwich ELISA (Perez et al. (2003). Nature Immunol 4:1083-92). […] After several washes (0.5% Tween-20 in PBS), 0.2 μg/ml anti-phospho-serine antibody (Hypromatrix) conjugated with horseradish peroxidase was added, and immunoreactivity measured by the TMB reagent (DakoCytomation) and the data analyzed with SpectraMax Plus (Molecular Devices).\nCell lysates were collected and analyzed by immunoblots using a pair of anti-phospho-PICA and anti-(total)-PKA antibodies, a pair of anti-phospho-PKC (all from Cell Signaling) and anti-(total)-PKC (Santa Cruz) antibodies, or a pair of anti-phospho-p56^lck (Cell Signaling) and anti-(total) p56^lck (sc-433, Santa Cruz) antibodies."}, "ERK-1/2": {"test_system": "ERK-1/2", "experiment": "ERK-1/2 phosphorylation in COS-7/M6 stable transformants (Western blot)", "conditions": "20 nM; COS-7/CD74+CD44 cell line or primary macrophages"}, "[1]": {"test_system": "murine bone marrow progenitor cultures", "experiment": "BFU-E and CFU-E erythropoietin-dependent progenitor colony assays", "conditions": "10-100 ng/ml MIF, 1-20 ng/ml TNFα, or 10-100 U/ml IFNγ", "protocol": "Bone marrow cells were harvested, plated in a methylcellulose-based medium, and colony numbers scored after the addition of murine cytokines. Individual assays were performed in duplicate, and the data shown is a compilation of 3-6 independently performed experiments. % inhibition of colony formation is calculated with reference to a cytokine-minus control. All values shown are the mean±SD and are significant when compared to wells with no cytokine addition (P<0.05). CFU-E: colony forming unit—erythroid; BFU-E: burst-forming unit—erythroid.\nThe two inflammatory cytokines, TNFα and IFNγ, were also studied. TNFα and IFNγ are produced as a consequence of macrophage and T cell activation (McDevitt et al. 2004. Curr Hematol Rep 3:97-106). The appearance of BFU-E and CFU-E were quantified after culture with these cytokines, applied either alone or in combination.\nBFU-E and CFU-E Progenitor Cell Assays. The progenitor cell (colony) assays were performed according to the standardized methods described previously (Martiney et al. 2000. Infection and Immunity 68:2259-2267) and protocols from StemCell Technologies (Vancouver; BC, Canada). Briefly, washed murine bone marrow cells were plated in sterile 35-mm dishes containing a methylcellulose-based medium and growth factors. The total number of bone marrow cells plated in duplicate culture dishes were as follows: 2×10^5 for CFU-E and 5×10^5 for BFU-E. MethoCult™ M3334 was utilized for the CFU-E and BFU-E colony assays. The media for CFU-E and BFU-E was volume adjusted by adding 1 part Isocove's MDM to 9 parts MethoCult™ M3334 to give final concentrations of the following components: 15% fetal bovine serum, 1% BSA, […] transferrin, […] insulin, 1% methylcellulose, 10^−4 M 2-mercaptoethanol, 2 mM L-glutamine and 3 units/ml erythropoietin. Each assay of different bone marrow progenitor cells was performed independently 3-6 times."}, "HIV-1ADA": {"test_system": "HIV-1ADA", "experiment": "HIV-1 replication in monocyte-derived macrophage cultures (RT activity)", "conditions": "polymyxin B 10 μg/ml added to MIF 50 ng/ml", "protocol": "(§2) Triplicate cultures of monocyte-derived macrophages were infected with HIV-1ADA in the presence of anti-MIF MAb (25 μg/ml) or isotype control. Virus replication was monitored by RT activity in culture supernatants. Results are presented as mean±SD. […] Control cultures were cultivated with PMB mixed with an isotype immunoglobulin with or without MIF.\nas §2, with “To investigate this possibility, HIV-infected macrophages were cultured in the presence of a neutralizing anti-MIF antibody or isotype control. Triplicate” for “Triplicate”, “supernatants.” for “supernatants. Results are presented as mean±SD.”"}},
  "data": [
    {"molecule": "O=S(=O)(NCCNC/C=C/c1ccc(Br)cc1)c1cccc2cnccc12", "note": "[H-89, reference compound]", "values": [
      {"measurement": "serine phosphorylation of CD44 after MIF stimulation in presence of kinase inhibitor", "setting": "CD44", "result": "reduced by PKA inhibition"},
      {"measurement": "MIF stimulation of CD74 phosphorylation in presence of kinase inhibitor", "setting": "CD74", "result": "decreased markedly"}
    ]},
    {"molecule": "COc1c(C=O)c(O)cc2c1C(=O)c1ccccc1C2=O", "note": "[damnacanthal, reference compound]", "values": [
      {"measurement": "phosphorylation of ERK1/2", "setting": "ERK-1/2", "result": "inhibition of the phosphorylation of p56^lck and ERK1/2"}
    ]},
    {"molecule": "TNFα", "values": [
      {"measurement": "BFU-E and CFU-E colony formation", "setting": "[1]", "result": "dose-dependently inhibited"}
    ]},
    {"molecule": "polymyxin B [reference compound]", "values": [
      {"measurement": "inhibitory effect of MIF on viral replication", "setting": "HIV-1ADA", "result": "did not significantly reduce the inhibitory effect of MIF"}
    ]},
    {"molecule": "B1", "values": [
      {"measurement": "BFU-E and CFU-E colony formation", "setting": "[1]", "result": "dose-dependently inhibited"}
    ]}
  ]
}
